# From ChEMBL document CHEMBL1201862, “PubChem BioAssay data set” (2004)
# Calls of active or inactive are those of the source.
# Legend:
# [1] = target: Cytochrome P450 2C9 (Homo sapiens, UniProt P11712)
# [2] = target: Cytochrome P450 3A4 (Homo sapiens, UniProt P08684);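 also: CYP3A4 tested as one member of a cytochrome P450 panel screen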
# [3] = tested on: BJ; test: cytotoxicity toward BJ-TERT fibroblasts, dose response, cell-based, RAS-independent, luminescence (AID 1933); type: functional; conditions: Homo sapiens
# [4] = target: T1, Heat shock factor protein 1 (Mus musculus, UniProt P38532); test: inhibition of MG132-induced HSE-luciferase signal, confirmation, cell-based, NIH3T3, luminescence, dose retest (AID 2382); type: functional;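 also: NIH3T3 fibroblasts with HSF1-driven luciferase reporter stressed by proteasome inhibitor MG132; luminescence from HSF1-driven luciferase expression after 8 hours of MG132 stress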
# T1 sequence (P38532 whole entry): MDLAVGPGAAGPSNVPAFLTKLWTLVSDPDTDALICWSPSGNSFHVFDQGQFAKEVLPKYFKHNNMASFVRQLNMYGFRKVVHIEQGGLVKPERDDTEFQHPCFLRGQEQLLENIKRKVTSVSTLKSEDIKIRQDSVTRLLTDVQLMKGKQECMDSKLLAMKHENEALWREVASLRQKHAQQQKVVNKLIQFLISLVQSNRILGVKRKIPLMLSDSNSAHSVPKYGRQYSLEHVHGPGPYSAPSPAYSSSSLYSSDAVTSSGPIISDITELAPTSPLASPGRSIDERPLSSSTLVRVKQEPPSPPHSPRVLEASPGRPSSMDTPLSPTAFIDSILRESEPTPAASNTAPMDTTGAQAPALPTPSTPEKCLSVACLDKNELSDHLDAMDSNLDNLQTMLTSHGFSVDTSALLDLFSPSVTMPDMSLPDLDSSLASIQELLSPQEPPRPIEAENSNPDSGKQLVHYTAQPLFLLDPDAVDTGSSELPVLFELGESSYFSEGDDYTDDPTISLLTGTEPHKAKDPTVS
# [5] = tested on: BJ; test: cells; type: functional, cell-based; conditions: Homo sapiens
# [6] = tested on: BJ; test: cytotoxicity toward BJ-TERT-LT-ST fibroblasts, dose response, cell-based, RAS-independent, luminescence (AID 1935); type: functional; conditions: Homo sapiens;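 also: BJ fibroblasts immortalized with TERT plus LT and ST oncogenes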
# [7] = cytotoxicity toward DRD oncogenic fibroblasts, dose response, cell-based, non-viral oncogenic, luminescence (AID 1934); type: functional; conditions: Homo sapiens
# [8] = target: Heat shock protein HSP 90-alpha (Homo sapiens, UniProt P07900); type: functional, organism-based
# [9] = tested on: Vero; test: cells; type: functional; conditions: Chlorocebus sabaeus
# [10] = target: Paired box protein Pax-8 (Homo sapiens, UniProt Q06710); test: inhibitors of PAX8-driven TPO luciferase reporter, dose response, RMG-I cells, cherry-pick (AID 687027); type: functional, cell-based;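 also: luciferase reporter driven by Pax8 target thyroperoxidase promoter measured by SteadyGlo luminescence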
# Chain of Paired box protein Pax-8 (Q06710 whole entry, the tested form may be a part): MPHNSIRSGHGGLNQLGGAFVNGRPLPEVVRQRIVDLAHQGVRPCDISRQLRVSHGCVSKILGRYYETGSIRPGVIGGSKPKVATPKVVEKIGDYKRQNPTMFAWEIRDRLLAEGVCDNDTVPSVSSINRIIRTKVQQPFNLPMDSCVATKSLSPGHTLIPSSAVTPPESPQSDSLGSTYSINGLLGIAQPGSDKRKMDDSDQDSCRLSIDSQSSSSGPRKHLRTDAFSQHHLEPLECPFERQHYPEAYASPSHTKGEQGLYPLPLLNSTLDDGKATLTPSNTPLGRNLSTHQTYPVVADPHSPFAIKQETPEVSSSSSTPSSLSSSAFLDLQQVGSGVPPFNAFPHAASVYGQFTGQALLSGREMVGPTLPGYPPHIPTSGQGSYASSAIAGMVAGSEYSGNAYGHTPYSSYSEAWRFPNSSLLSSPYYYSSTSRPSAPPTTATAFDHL
# [11] = inhibitors of HIV Env-driven cell fusion, dose response, cherry-pick (AID 652057); type: functional, cell-based
# [12] = ZM109 Env clade C HIV-1 fusion inhibitors, dose response, HeLa effector, CEM target cells, luciferase, cherry-pick (AID 652058); type: functional, cell-based
# [13] = off-target signal loss in HeLa-CEM21 co-culture – HeLa F-luc CTL cells, cherry-picked, counter-screen for HIV-1 Env fusion inhibitor project, dose response (AID 652040); type: functional, cell-based;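 also: potency for signal decrease marking cytotoxic or nonspecific inhibition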
# [14] = inhibitors of clade B AD8 Env fusion, dose response, cell-based, cherry-pick (AID 652062); type: functional;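 also: luciferase signal from cell-cell fusion driven by HIV-1 clade B AD8 Env; potency is for inhibitors of fusion seen as a drop in luminescence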
# [15] = target: T2, Protein skinhead-1 (Caenorhabditis elegans, UniProt P34707); type: functional
# T2 sequence (P34707 whole entry): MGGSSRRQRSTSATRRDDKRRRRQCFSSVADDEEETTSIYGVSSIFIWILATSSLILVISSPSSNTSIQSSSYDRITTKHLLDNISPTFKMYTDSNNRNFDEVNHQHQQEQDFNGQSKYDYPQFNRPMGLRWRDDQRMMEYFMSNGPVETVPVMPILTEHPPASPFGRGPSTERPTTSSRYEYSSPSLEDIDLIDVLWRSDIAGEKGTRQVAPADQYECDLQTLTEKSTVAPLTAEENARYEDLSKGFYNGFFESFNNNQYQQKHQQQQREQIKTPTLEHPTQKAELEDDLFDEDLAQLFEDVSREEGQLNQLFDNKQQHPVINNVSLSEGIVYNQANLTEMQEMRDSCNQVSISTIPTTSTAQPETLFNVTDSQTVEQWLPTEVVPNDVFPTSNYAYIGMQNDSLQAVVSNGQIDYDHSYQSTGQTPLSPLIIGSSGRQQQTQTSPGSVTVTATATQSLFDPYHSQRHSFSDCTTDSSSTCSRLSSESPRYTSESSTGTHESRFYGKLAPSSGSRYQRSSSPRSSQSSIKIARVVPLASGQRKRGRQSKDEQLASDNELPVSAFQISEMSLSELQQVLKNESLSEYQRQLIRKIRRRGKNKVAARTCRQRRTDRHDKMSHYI
# [16] = miR-122 activators in hepatoma reporter cells, dose response, cell-based, Huh7 psiCHECK-miR122, Renilla luciferase, cherry-picked (AID 651956); type: functional;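 also: huh7 hepatoma cells stably carrying a psiCHECK-2 miR-122 sensor plasmid; renilla luciferase signal reporting endogenous miR-122 activity after 48 h compound exposure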
# [17] = HEp-2 cell cytotoxicity, dose response, cytotoxicity control for RSV inhibitor project, HTS (AID 2410); type: functional; conditions: human respiratory syncytial virus
# [18] = target: T3, Aminopeptidase N (Plasmodium falciparum FcB1/Columbia, UniProt O96935); test: P. falciparum M1AAP inhibitors, biochemical, fluorogenic H-Leu-NHMec substrate, 1536-well (AID 1445); design: species or system Plasmodium falciparum 3D7, 3D7
# T3 sequence (O96935 whole entry): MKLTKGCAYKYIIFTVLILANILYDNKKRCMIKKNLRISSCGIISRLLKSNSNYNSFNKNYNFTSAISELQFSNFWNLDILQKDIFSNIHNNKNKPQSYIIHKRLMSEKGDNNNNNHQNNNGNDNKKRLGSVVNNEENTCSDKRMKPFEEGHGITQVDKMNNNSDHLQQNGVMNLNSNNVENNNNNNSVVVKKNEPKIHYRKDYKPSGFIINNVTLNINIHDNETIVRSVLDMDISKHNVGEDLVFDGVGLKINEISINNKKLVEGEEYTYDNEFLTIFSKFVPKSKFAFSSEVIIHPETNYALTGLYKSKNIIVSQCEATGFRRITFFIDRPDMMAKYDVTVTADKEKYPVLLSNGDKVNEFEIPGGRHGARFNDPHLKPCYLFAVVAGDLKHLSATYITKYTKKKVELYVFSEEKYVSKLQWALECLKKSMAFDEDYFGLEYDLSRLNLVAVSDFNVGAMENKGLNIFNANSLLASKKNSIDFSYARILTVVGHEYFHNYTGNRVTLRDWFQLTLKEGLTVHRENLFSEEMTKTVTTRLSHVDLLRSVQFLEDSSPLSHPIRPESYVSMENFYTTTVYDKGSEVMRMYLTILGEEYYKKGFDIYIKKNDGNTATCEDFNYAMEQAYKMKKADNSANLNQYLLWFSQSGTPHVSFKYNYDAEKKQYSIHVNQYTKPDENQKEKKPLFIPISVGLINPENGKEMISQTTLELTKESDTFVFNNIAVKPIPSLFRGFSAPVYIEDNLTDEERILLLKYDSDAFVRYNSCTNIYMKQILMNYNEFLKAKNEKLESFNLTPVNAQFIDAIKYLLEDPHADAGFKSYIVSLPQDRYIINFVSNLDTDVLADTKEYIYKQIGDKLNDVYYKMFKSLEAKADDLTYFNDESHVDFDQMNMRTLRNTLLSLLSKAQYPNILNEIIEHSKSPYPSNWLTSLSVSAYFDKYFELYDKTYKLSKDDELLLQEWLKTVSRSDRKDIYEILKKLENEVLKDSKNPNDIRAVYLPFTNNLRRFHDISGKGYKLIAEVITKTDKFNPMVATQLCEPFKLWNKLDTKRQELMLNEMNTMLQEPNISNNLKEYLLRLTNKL
# [19] = target: Large T antigen (Simian virus 40, UniProt P03070); type: functional, Betapolyomavirus macacae;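 also: Confirmatory-stage PubChem screen for compounds that inhibit SV40 T antigen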
# Chain of Large T antigen (P03070 whole entry): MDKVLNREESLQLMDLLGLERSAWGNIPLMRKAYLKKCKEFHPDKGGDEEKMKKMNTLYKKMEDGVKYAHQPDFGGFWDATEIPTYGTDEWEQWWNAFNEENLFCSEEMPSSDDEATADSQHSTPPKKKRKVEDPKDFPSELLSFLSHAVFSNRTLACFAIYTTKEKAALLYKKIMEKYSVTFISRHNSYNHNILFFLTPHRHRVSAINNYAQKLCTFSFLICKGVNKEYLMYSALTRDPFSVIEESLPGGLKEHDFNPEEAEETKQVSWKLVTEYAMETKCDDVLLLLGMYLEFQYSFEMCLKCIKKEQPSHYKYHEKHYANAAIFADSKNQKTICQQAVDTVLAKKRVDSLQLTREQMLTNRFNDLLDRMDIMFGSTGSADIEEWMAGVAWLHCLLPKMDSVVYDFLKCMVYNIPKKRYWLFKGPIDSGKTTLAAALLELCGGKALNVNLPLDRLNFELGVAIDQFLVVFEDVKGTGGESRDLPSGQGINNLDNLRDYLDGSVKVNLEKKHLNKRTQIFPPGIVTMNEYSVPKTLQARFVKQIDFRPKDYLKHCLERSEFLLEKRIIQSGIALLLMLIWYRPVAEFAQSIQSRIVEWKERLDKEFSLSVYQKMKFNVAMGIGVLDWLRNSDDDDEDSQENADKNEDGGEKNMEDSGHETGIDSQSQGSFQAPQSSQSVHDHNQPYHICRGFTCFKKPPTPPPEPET
# [20] = target: Induced myeloid leukemia cell differentiation protein Mcl-1 (Homo sapiens, UniProt Q07820); type: functional
# Chain of Induced myeloid leukemia cell differentiation protein Mcl-1 (Q07820 whole entry): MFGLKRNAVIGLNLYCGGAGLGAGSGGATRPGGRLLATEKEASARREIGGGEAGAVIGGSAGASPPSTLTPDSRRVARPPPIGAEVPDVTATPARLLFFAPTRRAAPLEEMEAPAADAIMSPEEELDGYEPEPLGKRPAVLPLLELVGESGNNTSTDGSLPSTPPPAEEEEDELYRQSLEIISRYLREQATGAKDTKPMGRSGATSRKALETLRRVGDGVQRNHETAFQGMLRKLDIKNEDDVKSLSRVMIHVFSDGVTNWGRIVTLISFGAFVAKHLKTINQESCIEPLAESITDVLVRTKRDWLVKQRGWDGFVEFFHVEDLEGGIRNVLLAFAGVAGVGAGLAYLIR
# [21] = target: Cytochrome P450 2D6 (Homo sapiens, UniProt P10635);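 also: CYP2D6 member of a cytochrome P450 panel assay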
# Chain of Cytochrome P450 2D6 (P10635 whole entry): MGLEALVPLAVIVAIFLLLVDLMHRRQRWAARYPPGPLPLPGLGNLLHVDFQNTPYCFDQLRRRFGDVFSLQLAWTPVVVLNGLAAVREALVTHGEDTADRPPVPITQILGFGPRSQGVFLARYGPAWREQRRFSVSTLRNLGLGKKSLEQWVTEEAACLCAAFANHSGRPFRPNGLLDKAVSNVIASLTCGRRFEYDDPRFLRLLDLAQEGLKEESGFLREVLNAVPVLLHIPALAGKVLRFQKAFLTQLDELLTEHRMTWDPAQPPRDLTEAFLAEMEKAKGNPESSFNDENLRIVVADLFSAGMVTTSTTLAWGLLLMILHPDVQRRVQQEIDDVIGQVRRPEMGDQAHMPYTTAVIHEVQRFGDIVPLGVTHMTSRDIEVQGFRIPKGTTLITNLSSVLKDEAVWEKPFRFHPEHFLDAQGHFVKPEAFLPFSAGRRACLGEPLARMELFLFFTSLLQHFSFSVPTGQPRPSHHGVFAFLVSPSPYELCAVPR
# [22] = Luminescence Cell-Based Dose Retest to Confirm Inhibitors of Cancer Stem Cells. [Related pubchem assays (depositor defined):AID2717, AID2721]; type: functional; conditions: Homo sapiens
# [23] = intracellular Trypanosoma cruzi inhibitors in host cells – cell-based, plate reader, cherry-pick samples, set 3, dose response (AID 651818); type: functional;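 also: compounds incubated with infected cells for about four days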
# [24] = target: Cytochrome P450 2C19 (Homo sapiens, UniProt P33261); test: Cytochrome panel assay with activity outcomes. Panel member name: p450-cyp2c19 Compounds with AC50 equal or less than 10 uM are considered active; type: functional; conditions: read-out: AC50
# Chain of Cytochrome P450 2C19 (P33261 whole entry): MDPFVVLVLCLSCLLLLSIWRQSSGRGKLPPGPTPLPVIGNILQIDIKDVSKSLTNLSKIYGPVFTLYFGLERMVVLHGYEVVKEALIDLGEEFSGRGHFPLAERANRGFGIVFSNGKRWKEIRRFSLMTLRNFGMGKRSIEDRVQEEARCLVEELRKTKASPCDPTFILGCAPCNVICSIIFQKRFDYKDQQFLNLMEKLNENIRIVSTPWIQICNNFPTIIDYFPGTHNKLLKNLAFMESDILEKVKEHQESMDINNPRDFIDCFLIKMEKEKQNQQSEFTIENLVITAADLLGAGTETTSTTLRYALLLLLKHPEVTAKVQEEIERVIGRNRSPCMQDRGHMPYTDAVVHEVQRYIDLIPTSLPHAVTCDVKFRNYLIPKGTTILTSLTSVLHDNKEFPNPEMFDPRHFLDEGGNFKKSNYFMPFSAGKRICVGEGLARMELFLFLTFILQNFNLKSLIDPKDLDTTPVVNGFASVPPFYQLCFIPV
# Chain of Cytochrome P450 3A4 (P08684 whole entry): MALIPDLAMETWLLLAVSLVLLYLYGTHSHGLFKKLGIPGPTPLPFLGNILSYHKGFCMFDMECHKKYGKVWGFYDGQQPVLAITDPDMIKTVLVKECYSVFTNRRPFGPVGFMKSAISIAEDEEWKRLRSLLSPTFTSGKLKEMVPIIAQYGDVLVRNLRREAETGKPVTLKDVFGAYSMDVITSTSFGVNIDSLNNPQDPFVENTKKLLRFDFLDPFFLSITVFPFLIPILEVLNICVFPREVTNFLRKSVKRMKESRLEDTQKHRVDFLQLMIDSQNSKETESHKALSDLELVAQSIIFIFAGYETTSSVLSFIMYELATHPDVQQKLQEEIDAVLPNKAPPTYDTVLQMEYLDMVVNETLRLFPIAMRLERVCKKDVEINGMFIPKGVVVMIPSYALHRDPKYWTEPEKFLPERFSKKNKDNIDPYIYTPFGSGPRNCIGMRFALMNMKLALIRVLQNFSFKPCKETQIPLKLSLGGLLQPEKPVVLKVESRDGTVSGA
# Chain of Cytochrome P450 2C9 (P11712 whole entry): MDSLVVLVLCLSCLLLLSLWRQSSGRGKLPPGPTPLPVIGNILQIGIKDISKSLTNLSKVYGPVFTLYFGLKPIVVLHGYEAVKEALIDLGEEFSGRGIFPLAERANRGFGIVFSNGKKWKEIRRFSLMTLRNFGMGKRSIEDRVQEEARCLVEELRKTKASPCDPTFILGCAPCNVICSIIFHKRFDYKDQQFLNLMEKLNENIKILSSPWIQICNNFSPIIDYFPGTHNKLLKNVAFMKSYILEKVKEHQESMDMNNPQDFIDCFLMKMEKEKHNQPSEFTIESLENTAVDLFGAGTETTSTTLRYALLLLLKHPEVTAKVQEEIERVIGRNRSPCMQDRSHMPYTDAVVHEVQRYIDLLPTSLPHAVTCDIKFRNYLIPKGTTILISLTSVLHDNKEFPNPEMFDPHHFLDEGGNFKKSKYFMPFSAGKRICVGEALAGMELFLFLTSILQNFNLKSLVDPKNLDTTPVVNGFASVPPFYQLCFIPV
smiles,measurement,setting,value
CCSc1ncnc2c1sc1nc(-c3ccco3)c3c(c12)CC(C)(C)OC3,AC50,[1],2 µM (inconclusive)
same,AC50,[2],inconclusive
S=C1SCN(Cc2cccnc2)CN1Cc1cccnc1,EC50,[3],2.48 µM (active)
same,EC50,[4],> 195 µM (not active)
same,EC50,[5],4.49 µM (active)
same,EC50,[6],26.1 µM (active)
same,EC50,[7],8.06 µM (inconclusive)
same,AC50,[8],4.53 µM (active)
same,CC50,[9],10.4 µM (active)
same,AC50,[10],3.62 µM (active)
O=C(Oc1ccccc1)N1CCC2(CC1)CCN(c1ccccc1)CC2,AC50,[2],inconclusive
Cc1ccc2c(c1)[C@H]1[C@H](CO2)[C@H](c2ccccc2)[C@]2(C)C(=O)N(CC3CCCO3)CC(=O)N12 (stereo not given in full),AC50,[11],2.63 µM (active)
same,AC50,[12],2.05 µM (active)
same,AC50,[13],4.49 µM (active)
same,AC50,[14],9.2 µM (active)
Cc1nc(Oc2ccccc2)c2oc3ccccc3c2n1,IC50,[15],> 100 µM (inactive)
C/C=C/c1ccc([C@H]2[C@@H](CO)N(Cc3ccccn3)[C@H]2CNC(=O)CC)cc1,AC50,[16],53.3 µM (active)
O=C1[C@H]2[C@@H](C3CC3)N3C(=O)CN(CC4CC4)C(=O)[C@@]3(Cc3ccccc3)[C@H]2C(=O)N1c1ccccc1,AC50,[11],1.76 µM (active)
same,AC50,[12],3.84 µM (active)
same,AC50,[13],3.51 µM (active)
same,AC50,[14],1.69 µM (active)
COc1ccc(C(=O)C2CCCN(Cc3cccn3-c3ccccn3)C2)c(OC)c1 (stereo not given),AC50,[16],21.8 µM (active)
O=C(/C=C/c1ccc(Cl)cc1)Nc1ccc(CN2CCOCC2)cc1,IC50,[15],14.3 µM (active)
C[C@@]12CC[C@H]3[C@@H](CCC4=CC(=O)CC[C@]43C)[C@H]1CC[C@H]2C(=O)CO,AC50,[2],inconclusive
Cc1nc2ccc3nc(NC(=O)c4ccc(S(=O)(=O)N5CCOCC5)cc4)sc3c2s1,AC50,[2],inconclusive
Clc1ccc2c(c1)c1cc(Cl)ccc1n2CN1CCOCC1,CC50,[17],17.9 µM (active)
same,IC50,[15],74.5 µM (inactive)
CCOc1cc(/C=C2/C(=N)N3N=C(c4ccccc4)SC3=NC2=O)ccc1O,IC50,[18],30.1 µM (active)
same,IC50,[19],10.2 µM (active)
same,IC50,[20],3.61 µM (active)
O=C(NCc1nc2ccccc2[nH]1)C1=C[C@H](C2CCCCC2)C[C@H](OCc2ccc(CO)cc2)O1,CC50,[9],16.1 µM (active)
same,IC50,[15],> 100 µM (inactive)
C#CC[N+](CC)(CC)CC#Cc1cccc(Cl)c1.[Br-],AC50,[21],2.24 µM (inconclusive)
same,AC50,[2],inconclusive
C[C@@H]1CN([C@H](C)CO)C(=O)c2cccc(NS(=O)(=O)c3cccs3)c2O[C@@H]1CN(C)Cc1ccc(C(F)(F)F)cc1,AC50,[11],< 0.26 µM (active)
same,AC50,[12],< 0.26 µM (active)
same,AC50,[14],2.1 µM (active)
CC[C@]1(C(=O)OC)[C@H]2C(=O)N(Cc3ccccc3)C(=O)[C@H]2[C@H]2CN=C(SCc3ccc(C)cc3)N21,AC50,[11],2.43 µM (active)
same,AC50,[12],1.56 µM (active)
same,AC50,[13],3.14 µM (active)
same,AC50,[14],3.41 µM (active)
COc1cc(NC(=O)c2csc(N)n2)cc(C(=O)Nc2cccc(C(F)(F)F)c2)c1,EC50,[3],8.47 µM (inconclusive)
same,EC50,[5],52.4 µM (inconclusive)
same,EC50,[6],111 µM (active)
same,EC50,[7],4.71 µM (active)
same,AC50,[22],2.19 µM (active)
Cc1ccc(S(=O)(=O)Nc2ccc3c(c2)CC(=O)N([C@@H](C)CO)C[C@@H](C)[C@@H](CN(C)Cc2ccc(C(F)(F)F)cc2)O3)cc1,AC50,[23],2.03 µM (active)
COc1ccc(/C=C/C(=O)c2nc3ccccc3n2CC(=O)c2ccc(OC)cc2)cc1,IC50,[15],> 100 µM (inactive)
CC(=O)O[C@H]1CC[C@@]2(C)[C@@H](CC[C@H]3[C@H]2CC(=O)[C@@]2(C)[C@@H]3C[C@H]3CC(C)=CC(=O)[C@H]32)C1,AC50,[2],inconclusive
COc1ccc(NC2CC(=O)N(CCc3ccccc3)C2=O)cc1 (stereo not given),IC50,[15],> 100 µM (inactive)
N#Cc1ccc(CN2CCC3(CC2)CCN(C(=O)Oc2ccccc2)CC3)cc1,AC50,[2],inconclusive
COc1ccccc1Nc1nc(-c2sc(NC(=O)c3ccc([N+](=O)[O-])cc3)nc2C)cs1,IC50,[20],0.449 µM (active)
same,AC50,[24],1.58 µM (inconclusive)
same,AC50,[1],3.55 µM (inconclusive)
CCOC(=O)c1c(C)c(C)n2c1NC(=O)C2,IC50,[15],> 100 µM (inactive)
